Patent publication US20210032253A1, “PYRAZOLO[1,5-A][1,3,5]TRIAZINE-2-AMINE DERIVATIVE, PREPARATION METHOD THEREFOR AND MEDICAL USE THEREOF” (JIANGSU HENGRUI MEDICINE CO., LTD., priority 2018, published 2021)

What was measured:
Format in all cases: cell-based
[1] = molecular target: T1, adenosine A2a receptor (A2aR) (Homo sapiens, UniProt P29274); assay: Inhibition of adenosine A2a receptor cAMP signaling pathway in CHO-K1/A2aR cells (HTRF cAMP dynamic 2 kit); conditions: Table 1, 20 nM ethylcarbazole
T1 construct: expressed in transfected cells; host or cells: CHO-K1
Excerpt: (§1) Test Example 1. Determination of the inhibitory activities of the compounds of the present disclosure on the adenosine A2a receptor (A2aR) cAMP signaling pathway, the adenosine A1 receptor (A1R) cAMP signaling pathway and the adenosine A3 receptor (A3R) cAMP signaling pathway.
(§2) The inhibitory activities of the compounds of the present disclosure on the adenosine A2a receptor (A2aR) cAMP signaling pathway, the adenosine A1 receptor cAMP signaling pathway and the adenosine A3 receptor cAMP signaling pathway were determined by the following methods. The experimental method is briefly described as follows:
CHO-K1/A2aR cells were cultured in DMEM/F12 medium containing 10% fetal bovine serum and 800 μg/mL Zeocin™. The cells were digested with the cell dissociation buffer during the experiment. The cells were resuspended in the HBSS buffer containing 20 mM HEPES and 0.1% bovine serum albumin and counted, and the cell density was adjusted to 10^6 cells/mL. In 384-well plates, each well was added with 5 μL of the cell suspension, and 2.5 µL of test compounds (4× concentration) formulated with the HBSS buffer containing 20 mM HEPES, 0.1% bovine serum albumin, 54 μM rolipram and 2.7 U/mL adenosine deaminase, and the plates were incubated at room temperature for 30 minutes. Each well was then added with 2.5 μL of ethylcarbazole (4× concentration) formulated with the balanced salt buffer containing 20 mM HEPES, 0.1% bovine serum albumin, 54 μM rolipram and 2.7 U/mL adenosine deaminase, and the plates were incubated at room temperature for 30 minutes. The final concentrations of the compounds were: 10000, 2000, 400, 80, 16, 3.2, 0.64, 0.128, 0.0256, 0.00512, and 0.001024 nM. The final concentration of ethylcarbazole was 20 nM. Intracellular cAMP concentration was determined with cAMP dynamic 2 kits. cAMP-d2 and Anti-cAMP—Eu-Cryptate were diluted respectively with the cAMP lysis buffer at a ratio of 1:4. Each well was added with 5 μL of the diluted cAMP-d2, followed by addition of 5 μL of the diluted Anti-cAMP—Eu-Cryptate, and the plates were incubated at room temperature in the dark for 1 hour. The HTRF signal values were read by the PHERAstar multi-function microplate reader.

[2] = molecular target: T2, adenosine A3 receptor (A3R) (Homo sapiens, UniProt P0DMS8); assay: Inhibition of adenosine A3 receptor cAMP signaling pathway in CHO-K1/A3R cells (HTRF cAMP dynamic 2 kit); conditions: Table 3; for IC50: CHO-K1/A3R cells, cAMP, 10 μM forskolin, 5 nM 2Cl-IB-MECA; for IC50 ratio (A3R/A2aR): selectivity A3R over A2aR
T2 construct: expressed in transfected cells; host or cells: CHO-K1
T2 sequence (P0DMS8 1-318): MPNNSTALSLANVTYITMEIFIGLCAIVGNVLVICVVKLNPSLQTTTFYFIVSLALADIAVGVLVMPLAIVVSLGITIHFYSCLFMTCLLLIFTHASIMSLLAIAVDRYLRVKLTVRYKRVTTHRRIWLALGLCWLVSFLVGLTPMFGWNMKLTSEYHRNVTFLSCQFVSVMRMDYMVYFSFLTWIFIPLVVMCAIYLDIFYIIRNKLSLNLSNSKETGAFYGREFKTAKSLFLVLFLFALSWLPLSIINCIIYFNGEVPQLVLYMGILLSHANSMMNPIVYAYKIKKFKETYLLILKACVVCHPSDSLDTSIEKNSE
Excerpt: as §1, §2
CHO-K1/A3R cells were cultured in DMEMIF12 medium containing 10% fetal bovine serum and 10 μg/mL puromycin. The cells were digested with the cell dissociation buffer during the experiment. The cells were resuspended in the HBSS buffer containing 20 mM HEPES and 0.1% bovine serum albumin and counted, and the cell density was adjusted to 5×10^5 cells/mL. In 384-well plates, each well was added with 12.5 μL of the cell suspension, and 6.25 μL of the test compounds (4× concentration) formulated with the HBSS buffer containing 20 mM HEPES, 0.1% bovine serum albumin, 54 μM rolipram and 2.7 U/mL adenosine deaminase, and the plates were incubated at room temperature for 30 minutes. Each well was then added with 6.25 μL of forskolin and 2Cl-IB-MECA (4× concentration) formulated with the HBSS buffer containing 20 mM HEPES, 0.1% bovine serum albumin, […] rolipram and 2.7 U/mL adenosine deaminase, and the plates were incubated at room temperature for 30 minutes. The final concentrations of the compounds were: 100000, 10000, 1000, 100, 10, 1, 0.1 and 0 nM. The final concentration of forskolin was 10 μM. The final concentration of 2Cl-IB-MECA was 5 nM. Intracellular cAMP concentration was determined with cAMP dynamic 2 kits. cAMP-d2 and Anti-cAMP—Eu-Cryptate were diluted respectively with the cAMP lysis buffer at a ratio of 1:4. Each well was added with 12.5 μL of the diluted cAMP-d2, followed by addition of 12.5 μL of the diluted Anti-cAMP—Eu-Cryptate, and the plates were incubated at room temperature in the dark for 1 hour. The HTRF signal values were read by the PHERAstar multi-function microplate reader. IC50 values for the inhibitory activities of the compounds were calculated by Graphpad Prism software, and are shown in Table 3.

[3] = molecular target: T3, adenosine A1 receptor (A1R) (Homo sapiens, UniProt P30542); assay: Inhibition of adenosine A1 receptor cAMP signaling pathway in CHO-K1/A1R cells (HTRF cAMP dynamic 2 kit); conditions: Table 2; for IC50: CHO-K1/A1R cells, cAMP, 10 μM forskolin, 10 nM CPA; for IC50 ratio (A1R/A2aR): selectivity A1R over A2aR
T3 construct: expressed in transfected cells; host or cells: CHO-K1
T3 sequence (P30542 1-326): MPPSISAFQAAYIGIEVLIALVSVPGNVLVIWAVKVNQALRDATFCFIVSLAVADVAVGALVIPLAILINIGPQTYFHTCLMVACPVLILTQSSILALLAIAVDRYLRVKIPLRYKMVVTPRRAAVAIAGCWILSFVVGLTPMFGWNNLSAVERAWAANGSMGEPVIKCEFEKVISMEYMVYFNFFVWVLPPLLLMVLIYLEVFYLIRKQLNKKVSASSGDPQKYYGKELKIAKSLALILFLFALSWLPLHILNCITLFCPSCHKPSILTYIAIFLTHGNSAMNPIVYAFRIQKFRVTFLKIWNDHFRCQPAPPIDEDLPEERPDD
Excerpt: as §1, §2
CHO-K1/A1R cells were cultured in DMEMIF12 medium containing 10% fetal bovine serum and 1 mg/mL G418. The cells were digested with the cell dissociation buffer during the experiment. The cells were then resuspended in the HBSS buffer containing 20 mM HEPES and 0.1% bovine serum albumin and counted, and the cell density was adjusted to 5×10^5 cells/mL. In 384-well plates, each well was added with 12.5 μL of the cell suspension, and 6.25 μL of the test compounds (4× concentration) formulated with the HBSS buffer containing 20 mM HEPES, 0.1% bovine serum albumin, 54 μM rolipram and 2.7 U/mL adenosine deaminase, and the plates were incubated at room temperature for 30 minutes. Each well was then added with 6.25 μL of forskolin and N6-cyclopentyladenosine (4× concentration) formulated with the HBSS buffer containing 20 mM HEPES, 0.1% bovine serum albumin, 54 μM rolipram and 2.7 U/mL adenosine deaminase, and the plates were incubated at room temperature for 30 minutes. The final concentrations of the compounds were: 100000, 10000, 1000, 100, 10, 1, 0.1 and 0 nM. The final concentration of forskolin was 10 μM. The final concentration of CPA was 10 nM. Intracellular cAMP concentration was determined with cAMP dynamic 2 kits. cAMP-d2 and Anti-cAMP—Eu-Cryptate were diluted respectively with the cAMP lysis buffer at a ratio of 1:4. Each well was added with 12.5 μL of the diluted cAMP-d2, followed by addition of 12.5 μL of the diluted Anti-cAMP—Eu-Cryptate, and the plates were incubated at room temperature in the dark for 1 hour. The HTRF signal values were read by the PHERAstar multi-function microplate reader.

T1 sequence (P29274 whole entry): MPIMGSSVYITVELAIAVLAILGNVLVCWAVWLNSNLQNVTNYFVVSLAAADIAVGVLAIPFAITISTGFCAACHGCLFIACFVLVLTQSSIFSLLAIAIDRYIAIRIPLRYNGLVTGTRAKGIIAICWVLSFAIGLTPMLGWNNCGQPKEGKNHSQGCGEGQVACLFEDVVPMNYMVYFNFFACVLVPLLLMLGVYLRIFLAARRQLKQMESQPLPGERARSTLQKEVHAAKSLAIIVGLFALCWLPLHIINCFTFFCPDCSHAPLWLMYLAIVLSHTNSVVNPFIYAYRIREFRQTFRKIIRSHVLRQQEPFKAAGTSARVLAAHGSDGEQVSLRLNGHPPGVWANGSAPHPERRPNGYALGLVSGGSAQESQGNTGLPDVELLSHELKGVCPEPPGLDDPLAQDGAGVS

Structure (SMILES)	IC50 [1] [nM]	IC50 [2] [nM]	IC50 ratio (A3R/A2aR) [2]	IC50 [3] [nM]	IC50 ratio (A1R/A2aR) [3]
Cc1ccc(-c2nc(N)nc3c(Cc4cccc(CO)n4)cnn23)o1 [Example 2, (6-((2-Amino-4-(5-methylfuran-2-yl)pyrazolo[1,5-a][1,3,5]triazin-8-yl)methyl)pyridin-2-yl)methanol]	0.87	2420	>10^3	1100	>10^3
COCCOCc1cccc(Cc2cnn3c(-c4ccc(C)o4)nc(N)nc23)n1 [Example 3, 8-((6-((2-Methoxyethoxy)methyl)pyridin-2-yl)methyl)-4-(5-methylfuran-2-yl)pyrazolo[1,5-a][1,3,5]triazin-2-amine]	0.45	4120	>10^3	434	964^
Cc1ccc(-c2nc(N)nc3c(Cc4ccccc4F)cnn23)o1 [Example 4, 8-(2-Fluorobenzyl)-4-(5-methylfuran-2-yl)pyrazolo[1,5-a][1,3,5]triazin-2-amine]	0.14	> 10000	>10^4		
Cc1ccc(-c2nc(N)nc3c(Cc4cccc(CN5CCOCC5)n4)cnn23)o1 [Example 5, 4-(5-Methylfuran-2-yl)-8-((6-(morpholinomethyl)pyridin-2-yl)methyl)pyrazolo[1,5-a][1,3,5]triazin-2-amine]	0.55	2280	>10^3	835	>10^3
Cc1ccc(-c2nc(N)nc3c(Cc4cccc(CO[C@@H]5CCOC5)n4)cnn23)o1 [Example 6, (R)-4-(5-Methylfuran-2-yl)-8-((6-(((tetrahydrofuran-3-yl)oxy)methyl)pyridin-2-yl)methyl)pyrazolo[1,5-a][1,3,5]triazin-2-amine]	0.4	4810	>10^3	316	790^
Cc1ccc(-c2nc(N)nc3c(Cc4cccc(CN5CC6(COC6)C5)n4)cnn23)o1 [Example 7, 8-((6-((2-Oxa-6-azaspiro[3.3]heptan-6-yl)methyl)pyridin-2-yl)methyl)-4-(5-methylfuran-2-yl) pyrazolo[1,5-a][1,3,5]triazin-2-amine]	1.18	7370	>10^3	340	288^
Cc1ccc(-c2nc(N)nc3c(Cc4cccc(CN5CCN(C)CC5)n4)cnn23)o1 [Example 8, 4-(5-Methylfuran-2-yl)-8-((6-((4-methylpiperazin-1-yl)methyl)pyridin-2-yl)methyl)pyrazolo[1,5-a][1,3,5]triazin-2-amine]	1.32	6490	>10^3	943	714^
Cc1ccc(-c2nc(N)nc3c(Cc4cccc(COS(N)(=O)=O)n4)cnn23)o1 [Example 11, (6-((2-Amino-4-(5-methylfuran-2-yl)pyrazolo[1,5-a][1,3,5]triazin-8-yl)methyl)pyridin-2-yl)methyl sulfamate]	1.86			410	220^
Cc1ccc(-c2nc(N)nc3c(Cc4cccc(COCC5CC5)n4)cnn23)o1 [Example 17, 8-((6-((Cyclopropylmethoxy)methyl)pyridin-2-yl)methyl)-4-(5-methylfuran-2-yl)pyrazolo[1,5-a][1,3,5]triazin-2-amine]	0.72	1390	>10^3		
CCCc1cccc(Cc2cnn3c(-c4ccc(C)o4)nc(N)nc23)n1 [Example 20, 4-(5-Methylfuran-2-yl)-8-((6-propylpyridin-2-yl)methyl)pyrazolo[1,5-a][1,3,5]triazin-2-amine]	0.09	280	>10^3		
Cc1ccc(-c2nc(N)nc3c(Oc4ccccn4)cnn23)o1 [Example 23, 4-(5-Methylfuran-2-yl)-8-(pyridin-2-yloxy)pyrazolo[1,5-a][1,3,5]triazin-2-amine]	0.58				
Cc1ccc(-c2nc(N)nc3c(Nc4ccccc4F)cnn23)o1 [Example 31, N^8-(2-Fluorophenyl)-4-(5-methylfuran-2-yl)pyrazolo[1,5-a][1,3,5]triazine-2,8-diamine]	3.53				
Nc1nc(-c2ccco2)n2ncc(Cc3ccccc3)c2n1 [Example 33, 8-Benzyl-4-(furan-2-yl)pyrazolo[1,5-a][1,3,5]triazin-2-amine]	4.14			565	136^
Nc1nc(-c2ccco2)n2ncc(Cc3cccc(F)c3)c2n1 [Example 34, 8-(3-Fluorobenzyl)-4-(furan-2-yl)pyrazolo[1,5-a][1,3,5]triazin-2-amine]	4.64				
